Measurements taken from PubChem BioAssay AID1745844 (Carcinogenic Potency Database (CPDB), 2022).

Test system: rodent lifetime carcinogenesis bioassay, tumor incidence TD50
Experiment: carcinogenic potency in animals, long-term in vivo studies, CPDB compilation (AID 1745844)
Conditions: mouse, strain B6C3F1, males, inhaled

With `C=CC=C` the TD50 (site: Harderian gland, lesion: adenocarcinoma + adenocarcinoma, bilateral, dosed 52 weeks, study length 104 weeks) was 88.9 mg/kg/day, the TD50 (site: Harderian gland, lesion: adenocarcinoma + adenoma + adenocarcinoma, bilateral + adenoma, bilateral, dosed 13 weeks, study length 104 weeks) was 11.7 mg/kg/day and the TD50 (site: Harderian gland, lesion: adenocarcinoma + adenoma + adenocarcinoma, bilateral + adenoma, bilateral, dosed 26 weeks, study length 104 weeks) was 22.7 mg/kg/day. For the same molecule, the TD50 (site: Harderian gland, lesion: adenocarcinoma + adenoma + adenocarcinoma, bilateral + adenoma, bilateral, dosed 52 weeks, study length 104 weeks) was 13.1 mg/kg/day, the TD50 (site: Harderian gland, lesion: adenocarcinoma + adenoma + adenoma, bilateral, dosed 40 weeks, study length 104 weeks) was 17.5 mg/kg/day and the TD50 (site: Harderian gland, lesion: adenocarcinoma + adenoma + adenoma, bilateral, dosed 82 weeks, study length 104 weeks) was 26.1 mg/kg/day. The TD50 (site: Harderian gland, lesion: adenocarcinoma, dosed 40 weeks, study length 104 weeks) was 531 mg/kg/day, the TD50 (site: Harderian gland, lesion: adenocarcinoma, dosed 82 weeks, study length 104 weeks) was 221 mg/kg/day and the TD50 (site: Harderian gland, lesion: adenoma + adenoma, bilateral, dosed 13 weeks, study length 104 weeks) was 14.9 mg/kg/day. It also gave a TD50 (site: Harderian gland, lesion: adenoma + adenoma, bilateral, dosed 26 weeks, study length 104 weeks) of 22.7 mg/kg/day, a TD50 (site: Harderian gland, lesion: adenoma + adenoma, bilateral, dosed 40 weeks, study length 104 weeks) of 18 mg/kg/day and a TD50 (site: Harderian gland, lesion: adenoma + adenoma, bilateral, dosed 52 weeks, study length 104 weeks) of 14.9 mg/kg/day. For the same molecule, the TD50 (site: Harderian gland, lesion: adenoma + adenoma, bilateral, dosed 82 weeks, study length 104 weeks) was 27.6 mg/kg/day, the TD50 (site: Zymbal's gland, lesion: adenoma + carcinoma, dosed 13 weeks, study length 104 weeks) was 223 mg/kg/day and the TD50 (site: Zymbal's gland, lesion: adenoma + carcinoma, dosed 26 weeks, study length 104 weeks) was 135 mg/kg/day. It also gave a TD50 (site: Zymbal's gland, lesion: adenoma + carcinoma, dosed 40 weeks, study length 104 weeks) of 647 mg/kg/day, a TD50 (site: Zymbal's gland, lesion: carcinoma, dosed 13 weeks, study length 104 weeks) of 336 mg/kg/day and a TD50 (site: Zymbal's gland, lesion: carcinoma, dosed 26 weeks, study length 104 weeks) of 135 mg/kg/day. For the same molecule, the TD50 (site: Zymbal's gland, lesion: carcinoma, dosed 40 weeks, study length 104 weeks) was 625 mg/kg/day, the TD50 (site: all sites + brain + forestomach + Harderian gland + heart + kidney + liver + lung + preputial gland, lesion: histiocytic sarcoma + malignant lymphoma, mixed type + malignant lymphoma, lymphocytic type + malignant lymphoma + olfactory lob, dosed 13 weeks, study length 104 weeks) was 7 mg/kg/day and the TD50 (site: all sites + brain + forestomach + Harderian gland + heart + kidney + liver + lung + preputial gland, lesion: histiocytic sarcoma + malignant lymphoma, mixed type + malignant lymphoma, lymphocytic type + malignant lymphoma + olfactory lob, dosed 26 weeks, study length 104 weeks) was 12.6 mg/kg/day. It also gave a TD50 (site: all sites + forestomach + Harderian gland + heart + kidney + liver + lung + preputial gland, lesion: histiocytic sarcoma + malignant lymphoma, histiocytic type + malignant lymphoma, mixed type + malignant lymphoma, lymphocytic, dosed 82 weeks, study length 104 weeks) of 10.7 mg/kg/day, a TD50 (site: all sites + forestomach + Harderian gland + heart + kidney + liver + lung + preputial gland, lesion: histiocytic sarcoma + malignant lymphoma, mixed type + malignant lymphoma, lymphocytic type + malignant lymphoma + squamous-cell, dosed 40 weeks, study length 104 weeks) of 10.9 mg/kg/day and a TD50 (site: all sites + forestomach + Harderian gland + heart + kidney + liver + lung + preputial gland, lesion: histiocytic sarcoma + malignant lymphoma, mixed type + malignant lymphoma, lymphocytic type + malignant lymphoma + squamous-cell, dosed 52 weeks, study length 104 weeks) of 6.12 mg/kg/day. For the same molecule, the TD50 (site: all sites + forestomach + heart + lung, lesion: malignant lymphoma, NOS + papilloma, NOS + squamous-cell papilloma + hemangiosarcoma + alveolar/bronchiolar adenoma + alveolar/bro, dosed 60 weeks, study length 60 weeks) was 28.8 mg/kg/day, the TD50 (site: all sites, lesion: hemangioma + hemangiosarcoma, dosed 13 weeks, study length 104 weeks) was 16.9 mg/kg/day and the TD50 (site: all sites, lesion: hemangioma + hemangiosarcoma, dosed 26 weeks, study length 104 weeks) was 17.7 mg/kg/day. It also gave a TD50 (site: all sites, lesion: hemangioma + hemangiosarcoma, dosed 40 weeks, study length 104 weeks) of 17.3 mg/kg/day, a TD50 (site: all sites, lesion: hemangioma + hemangiosarcoma, dosed 52 weeks, study length 104 weeks) of 11.1 mg/kg/day and a TD50 (site: all sites, lesion: hemangioma + hemangiosarcoma, dosed 82 weeks, study length 104 weeks) of 38 mg/kg/day. The TD50 (site: all sites, lesion: hemangioma, dosed 13 weeks, study length 104 weeks) was 45.8 mg/kg/day, the TD50 (site: all sites, lesion: hemangioma, dosed 40 weeks, study length 104 weeks) was 95.2 mg/kg/day and the TD50 (site: all sites, lesion: hemangiosarcoma, dosed 13 weeks, study length 104 weeks) was 21.9 mg/kg/day. For the same molecule, the TD50 (site: all sites, lesion: hemangiosarcoma, dosed 26 weeks, study length 104 weeks) was 17.7 mg/kg/day, the TD50 (site: all sites, lesion: hemangiosarcoma, dosed 40 weeks, study length 104 weeks) was 20.8 mg/kg/day and the TD50 (site: all sites, lesion: hemangiosarcoma, dosed 52 weeks, study length 104 weeks) was 11.9 mg/kg/day. The TD50 (site: all sites, lesion: hemangiosarcoma, dosed 82 weeks, study length 104 weeks) was 45.5 mg/kg/day, the TD50 (site: all sites, lesion: histiocytic sarcoma + malignant lymphoma, histiocytic type + malignant lymphoma, mixed type + malignant lymphoma, lymphocytic, dosed 82 weeks, study length 104 weeks) was 63.5 mg/kg/day and the TD50 (site: all sites, lesion: histiocytic sarcoma + malignant lymphoma, mixed type + malignant lymphoma, lymphocytic type + malignant lymphoma, dosed 13 weeks, study length 104 weeks) was 26.2 mg/kg/day. It also gave a TD50 (site: all sites, lesion: histiocytic sarcoma + malignant lymphoma, mixed type + malignant lymphoma, lymphocytic type + malignant lymphoma, dosed 26 weeks, study length 104 weeks) of 28.8 mg/kg/day, a TD50 (site: all sites, lesion: histiocytic sarcoma + malignant lymphoma, mixed type + malignant lymphoma, lymphocytic type + malignant lymphoma, dosed 40 weeks, study length 104 weeks) of 57.1 mg/kg/day and a TD50 (site: all sites, lesion: histiocytic sarcoma + malignant lymphoma, mixed type + malignant lymphoma, lymphocytic type + malignant lymphoma, dosed 52 weeks, study length 104 weeks) of 27.6 mg/kg/day. The TD50 (site: all sites, lesion: histiocytic sarcoma, dosed 13 weeks, study length 104 weeks) was 91.1 mg/kg/day, the TD50 (site: all sites, lesion: histiocytic sarcoma, dosed 26 weeks, study length 104 weeks) was 396 mg/kg/day and the TD50 (site: all sites, lesion: histiocytic sarcoma, dosed 40 weeks, study length 104 weeks) was 128 mg/kg/day. The TD50 (site: all sites, lesion: histiocytic sarcoma, dosed 52 weeks, study length 104 weeks) was 110 mg/kg/day, the TD50 (site: all sites, lesion: histiocytic sarcoma, dosed 82 weeks, study length 104 weeks) was 157 mg/kg/day and the TD50 (site: all sites, lesion: malignant lymphoma, NOS, dosed 60 weeks, study length 60 weeks) was 105 mg/kg/day. It also gave a TD50 (site: all sites, lesion: malignant lymphoma, histiocytic type + malignant lymphoma, mixed type + malignant lymphoma, lymphocytic type + malignant lymph, dosed 82 weeks, study length 104 weeks) of 99.8 mg/kg/day, a TD50 (site: all sites, lesion: malignant lymphoma, lymphocytic type, dosed 13 weeks, study length 104 weeks) of 66.8 mg/kg/day and a TD50 (site: all sites, lesion: malignant lymphoma, lymphocytic type, dosed 26 weeks, study length 104 weeks) of 46 mg/kg/day. For the same molecule, the TD50 (site: all sites, lesion: malignant lymphoma, lymphocytic type, dosed 40 weeks, study length 104 weeks) was 142 mg/kg/day, the TD50 (site: all sites, lesion: malignant lymphoma, lymphocytic type, dosed 52 weeks, study length 104 weeks) was 129 mg/kg/day and the TD50 (site: all sites, lesion: malignant lymphoma, lymphocytic type, dosed 82 weeks, study length 104 weeks) was 157 mg/kg/day. The TD50 (site: all sites, lesion: malignant lymphoma, mixed type + malignant lymphoma, lymphocytic type + malignant lymphoma, dosed 13 weeks, study length 104 weeks) was 34.9 mg/kg/day.
